In patent US5942501A, “Cyclodextrin derivative complex” (priority 1996, dated 1999):

Experiments:
[1] = cited from earlier work
[2] = Solubility in water of salicylic acid, cyclodextrins and cyclodextrin inclusion complexes; type: physicochemical; settings: complexed with cyclodextrin

Compound	solubility of salicylic acid in water ([1]; ambient temperatures, uncomplexed)	solubility of S.A. in water or mixed aqueous solvent (uncomplexed) ([1]; water or mixed aqueous solvent, starting value before complexation)	solubility in complexed form (in words) [2]
O=C(O)c1ccccc1O [salicylic acid]	about 0.3%	about 0.3%	
OCCOc1ccccc1 [phenoxyethanol]			more soluble in complexed form
